Data: patent US10285986B2, “Compounds and anti-tumor NQO1 substrates” (The Board of Trustees of the University of Illinois, priority 2011, dated 2019)
≈ marks a conversion by molar mass, not a printed value. Where “and” joins values, the source holds several entries; their conditions need not be identical. Identical values can stand only once. Like-named read-outs stand apart in the source and are kept apart here.

Columns and labels:
[1] = Solubility in organic solvents; format: physicochemical; conditions: for solubility: organic solvent or mixture, thermodynamic from solid
Description: The solubility of DNQ derivatives in organic solvents was determined by measuring the amount of a given solvent required to dissolve a known amount of compound. Solvent was added to the compound in 50 μL aliquots and the slurry was sonicated. […] Solubility was assessed in DMSO, dichloromethane, and 33% methanol in dichloromethane (FIGS. 9, 10, and 11, respectively).

PAR-PARP1 = assay: PARP1 hyperactivation (PAR-PARP1 formation) in vivo in orthotopic Lewis Lung Carcinoma model, immunoblotting; parameters: species or system NOD/SCID mice; conditions: iv at or near MTD
Description: Antibodies that specifically detect poly(ADP-ribosyl)ated α-PAR (BD Pharmingen, San Jose, Calif.) proteins (e.g., the most abundant species, poly(ADP-ribosyl)ated PARP1, PAR-PARP1) and α-PARP1 (sc-8007, Santa Cruz Biotechnology) antibodies were used at 1:4000 and 1:2000 dilutions, respectively. α-Tubulin was monitored for loading.
To generate a known control to monitor the formation of poly(ADP-ribose)ylated-polymerase 1 (PAR-PARP1) in cells, LLC tumor cells were treated in vitro with hydrogen peroxide (H2O2, 0.5 μM) for 15 minutes, and whole cell protein lysates were separated by SDS-PAGE using the α-PAR (BD Pharmingen, San Jose, Calif.) antibody described above. PAR-PARP1 formation was then assessed by immunoblot analyses as previously described in Huang et al., Cancer Research, 2012.
LLC cells (1.0×10^6) were intravenously (iv) injected into the tail veins of female 18-20 gram NOD/SCID mice. Establishment of tumor nodules in the lungs of exposed mice were confirmed by bioluminescence and mice (5/group) were treated intravenously (via tail vein injection) with: (i) hydroxypropyl-beta-cyclodextrin (HPRCD) vehicle alone; (ii) DNQ (7.5 mg/kg); (ii) DNQ-87 (14 mg/kg); (iii) DNQ-107 (10 mg/kg); or (vi) DNQ 9-251 (20 mg/kg) dissolved in HPRCD. At specific times indicated (in mins) after injection of vehicle or drug, mice were euthanized, lungs removed and tumor nodules harvested. […] Extracts from cells treated with H2O2 were used as controls for monitoring PAR-PARP1 formation in LLC tumor cells.

MCF-7 cells = assay: Cytotoxicity to MCF-7 cells with or without 25 μM dicoumarol (sulforhodamine B assay); format: cell-based, human; conditions: for IC50: Homo sapiens; for Fold Protection of MCF7 cells w/ 25 μM dicoumarol: Table 1
Method in brief: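 MCF-7 cells, which express high NQO1, were exposed to compounds for 2 hours with or without 25 μM dicoumarol. They were then washed and kept 72 hours in fresh media. Cell death was measured by sulforhodamine B assay.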

[2] = Maximum tolerated dose in mice; conditions: mouse, ip
Source text: Because of the difficulty of repeated tail vein injections in mice, our group is using IP administration of compound.
All of these derivatives are currently being assessed for their maximum tolerated dose (MTD) in healthy mice. Compounds are formulated in HPβCD and delivered by IP injection to two mice once daily for five days.

[3] = Solubility in organic solvents; format: physicochemical; conditions: organic solvent or mixture, thermodynamic from solid; THF; Table 1
[4] = Aqueous solubility in pH 7.4 PBS by LC-MS; format: physicochemical
Method in brief: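 Solid compound was sonicated 30 min in pH 7.4 PBS (the bath warmed to 45 °C, samples were cooled before filtration) and passed through a 0.45 μm filter. Filtrate was quantified by LC-MS with UV at 275 nm against a 1–100 μM DNQ calibration curve, which was also applied to derivatives. Strongly coloured filtrates were diluted 10-fold in PBS.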

NQO1 = NQO1 (Homo sapiens, UniProt P15559); assay: NQO1 enzymatic measurements in vitro; format: biochemical; conditions: 1 μM substrate
Description: As further evidence that the activity of these DNQ derivatives is dependent on their ability to be reduced by NQO1, full enzymatic measurements in vitro were performed. We found a strong correlation between catalytic efficiency of substrates in vitro and their cell culture toxicity. […] This provides strong evidence that the cytotoxicity of DNQ and its derivatives are dependent primarily upon the activity of NQO1 within the cell.

[5] = 2:1 CH2Cl2:MeOH, Table 4.3, read-out: Solubility in 2:1 CH2Cl2:MeOH
[6] = CH2Cl2:MeOH 2:1, Table 1, read-out: CH2Cl2:MeOH 2:1 solubility
[7] = CH2Cl2, Table 1, read-out: CH2Cl2 solubility
[8] = DMSO, Table 1, read-out: DMSO solubility
[9] = MCF7, Table 1, read-out: MCF7 IC50
[10] = MCF7, Table 4.2, no DIC, ± s.e., read-out: IC50 vs. MCF-7 cells
[11] = MCF7, classification in figure legends of FIGS. 7-11, read-out: IC50 ("active" / generally "inactive" compounds)
[12] = MCF7, read-out: IC50 vs. MCF-7 cells +25 μM DIC, Table 4.2, +25 μM DIC, ± s.e.
[13] = phosphate buffered saline, pH 7.4, aqueous buffer, thermodynamic from solid, PBS pH 7.4, Table 4.3

NQO1, sequence (P15559 whole entry): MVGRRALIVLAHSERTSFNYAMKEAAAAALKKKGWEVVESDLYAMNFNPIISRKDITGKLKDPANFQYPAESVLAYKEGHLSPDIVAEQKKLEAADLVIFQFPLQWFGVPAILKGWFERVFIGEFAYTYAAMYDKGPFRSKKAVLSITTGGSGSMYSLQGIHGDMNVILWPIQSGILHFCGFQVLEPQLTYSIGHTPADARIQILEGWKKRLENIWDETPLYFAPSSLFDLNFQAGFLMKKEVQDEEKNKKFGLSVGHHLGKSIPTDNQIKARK

Compound | Solubility in CH2Cl2 ([1]; CH2Cl2, Table 4.3) [mM] | Solubility in DMSO ([1]; DMSO, Table 4.3) [mM] | solubility [1, 5] [mM] | solubility [1, 6] [mM] | solubility [1, 7] [mM] | solubility [1, 8] [mM] | PAR-PARP1 formation in tumor tissue (PAR-PARP1) | IC50 (MCF-7 cells; [9]) [nM] | IC50 (MCF-7 cells; [10]) [nM] | IC50 (MCF-7 cells; [11]) [nM] | IC50 (MCF-7 cells; [12]) [nM] | Fold Protection of MCF7 cells w/ 25 μM dicoumarol (MCF-7 cells) | Fold protection by DIC (MCF-7 cells; Table 4.2) | MTD at 5 days ([2]; in vivo) | solubility [3] [mM] | solubility at 30 min [4, 13] [mM] | NQO1 Initial Velocity @ 1 μM (NQO1) | also measured
Cc1cc(=O)[nH]c2c1C(=O)c1c(C)cc(=O)n(C)c1C2=O [DNQ, Deoxynyboquinone, reference compound] | 0.7 (≈ 199 µg/mL) | 3.1 (≈ 881 µg/mL) | 8.5 (≈ 2420 µg/mL) | 8.5 (≈ 2420 µg/mL) | 0.7 (≈ 199 µg/mL) | 3.1 (≈ 881 µg/mL) | formation of PAR-PARP1 | 190 | 130 ± 20 | < 500 | 1800 ± 300 | 7.8 | 14 | 5 mg/kg | 0.42 (≈ 119 µg/mL) | 0.115 (≈ 32.7 µg/mL) | 1900 ± 100 | IC50 (MCF-7 cells; MCF7, 2 h, Table 4.1, 2 h exposure, no DIC, ± s.e., read-out: IC50 vs. MCF-7 cells): 130 ± 20 nM; IC50 (MCF-7 cells; MCF7, read-out: IC50 vs. MCF-7 cells +25 μM DIC, Table 4.1, +25 μM DIC, ± s.e.): 1700 ± 300 nM; Fold protection by DIC (MCF-7 cells; Table 4.1): 14; MTD ([2]; in vivo): ~5 mg/kg; MTD at 5 days [2]: 18 µmol/kg; solubility at 30 min ([4]; pH 7.4 PBS): 0.1 mM (≈ 28.4 µg/mL); solubility at 30 min ([4]; phosphate buffered saline, pH 7.4, aqueous buffer, thermodynamic from solid, pH 7.4 PBS): 0.115 mM (≈ 32.7 µg/mL)
Cc1cc(=O)[nH]c2c1C(=O)c1c(C)cc(=O)n(CC(C)C)c1C2=O [Compound 87] | 180 (≈ 58700 µg/mL) | 110 (≈ 35900 µg/mL) | 140 (≈ 45700 µg/mL) | 140 (≈ 45700 µg/mL) | 180 (≈ 58700 µg/mL) | 110 (≈ 35900 µg/mL) | higher levels of PAR-PARP1 formation | 250 | 230 ± 20 | < 500 | 1100 ± 100 | 6.1 | 4.8 | 14 mg/kg and 44 µmol/kg | 34 (≈ 11100 µg/mL) | 0.115 (≈ 37.5 µg/mL) | 1900 ± 200 | 
